Experimental data taken from US20230416209A1, “COMPOUNDS AND METHODS TO TARGET GLUCOSE-STIMULATED PHOSPHOHISTIDINE SIGNALING AND ESOPHAGEAL CANCER GROWTH” (Health Research, Inc., priority 2020, published 2023).
Like-named read-outs stand apart in the source and are kept apart here.

Experiments:
NME1 (Homo sapiens) = experiment: NME1-catalyzed histidine phosphorylation of recombinant FAK (pHis-rFAK ELISA); format: biochemical; conditions: purified NME1 and rFAK, 0-1 μM, 3 hr
Source text: A. Assessment of Glc-altered NM1 phosphorylation of pHis-FAK. NME1 was pulldown with an anti-NME1 antibody from KYSE70 cells +/−Glc stimulation and added to the anti-pHis antibody (rabbit)-coated wells. The anti-FAK (mouse) was used to detect the pHis-FAK on the plate. N=3, *: p<0.05, ***: p<0.001 and ****: p<0.0001 vs No NME1 or NME1 (−Glc). B. Glc increases NME1 in xenograft lysates derived from fasting mice +/−Glc. C. H5 attenuates NME1-increased levels of pHis-rFAk. Purified NMR1 and recombinant FAK (rFAK) were incubated in the NME kinase buffer in the presence of varied concentrations (0-1 μM) of vehicle of H5 for 3 hr. The relative levels of pHis-rFAK were assessed using ELISA.

FAK-RB1 interaction = FAK-RB1 interaction (Homo sapiens, UniProt Q05397); experiment: FAK-RB1 interaction assay (rFAK/rRB1 co-IP ELISA); format: biochemical; conditions: rFAK with 0-10 μM for 1 hr, then rRB1 3 hr
Protocol: Then, rRB1 was added to mixture and kept at room temperature for 3 hr. The mixture was added to the anti-FAK antibody-coated plated. After extensive washing, the co-IPed rRB1 was detected using an anti-RB1 antibody.

TE10 cells = experiment: WST-1 proliferation assay, TE10 cells; format: cell-based; conditions: Homo sapiens, TE-10; medium containing 5% FBS, 48 hr, WST-1 assay; read-out: IC^50, TE10
KYSE70 = experiment: WST-1 proliferation assay, KYSE70 cells; format: cell-based; conditions: Homo sapiens, KYSE-70; medium containing 5% FBS, 48 hr, WST-1 assay; read-out: IC^50 of H5 on ESCC cells, KYSE70
TE9 = experiment: WST-1 proliferation assay, TE9 cells; format: cell-based; conditions: Homo sapiens, TE-9; medium containing 5% FBS, 48 hr, WST-1 assay; read-out: IC^50 of H5 on ESCC cells, TE9
ESCC (KYSE520) cells = experiment: WST1 analysis of cisplatin combined with FAK H58 inhibitor, KYSE520; format: cell-based
Protocol: ESCC (KYSE520) cells were seeded on a 96-well plate at a density of 2000 cells/well in complete medium. The next day, medium was replaced with the serum-reduced medium (5% FBS) containing 0-80 μM of cisplatin and 5 fixed doses of H5 (0 μM, 5 μM, 10 μM, 20 μM, or 40 μM). The cells were kept for 72 hrs. WST1 analysis, a MTT-like assay, was performed to assess proliferation. Log (inhibition) vs. response—variable (four parameters). Prism was utilized to find the best-fit value and to calculate a complete confidence interval.
Synergistic effects of the chemotherapy drug combined with FAK H58 inhibitor. Chemotherapies are commonly used treatments for patients with ESCC. It was sought to determine whether the inhibition of glucose-induced G1-to-S phase transition of the cell cycle coupled with the interruption of DNA synthesis by chemotherapeutic agents is synergistic. ESCC cells (KYSE70 and KYSE520) were cultured in the medium containing reduced FBS (5%), 0-80 μM of cisplatin and 5 fixed doses of H5 (0, 5, 10, 20, or 40 μM) for 72 hr. Cell proliferation was assessed using WST1, a MTT-like reagent.
To assess the synergistic effects of cisplatin coupled with the FAK H58 inhibitor derivative (H5A), ESCC cells (KYSE70 and KYSE520) were treated with 0-80 μM of cisplatin and 5 fixed doses of H5 Å for 72 hr. The H5 derivative H5 Å enhanced the inhibitory effects of cisplatin in KYSE70 from 4 to 2 μM (FIG. 7) and in KYSE520 from 27 to 24 μM (FIG. 8), respectively.

FAK^pHis58 = experiment: Glc-induced phosphorylation of FAK H58 in KYSE70 cells; format: cell-based; conditions: KYSE70 cells stimulated by Glc in the absence of growth factors
Protocol: (§1) A. Top ranked small molecules that bind to FAK H58 site. B. FAK^His58 inhibitors attenuate Glc-induced phosphorylation of FAK H58. In the absence of growth factors, KYSE70 cells were stimulated by Glc with or without FAK^His58 inhibitors (H5). N=3, **: p<0.001 vs vehicle+Glc. C. Dose responses of FAK^His58 inhibitors on proliferation. KYSE70 cells were incubated in serum-free medium containing Glc, BrdU and varied concentrations of FAK^His58 inhibitors (H5). BrdU coupling ELISA was performed to assess the relative levels of newly synthesized BrdU-DNA. IC^50 values were calculated.
(§2) Reproducible test: BrdU coupling ELISA, pHis-FAK assays and IP/IB were performed to confirm the FAK H58 hit inhibition of ESCC proliferation, phosphorylation of FAK on H58 and FAK-RB1 interaction (FIGS. 2-4).

KYSE70 cells = experiment: BrdU coupling ELISA of Glc-induced ESCC cell proliferation; format: cell-based; conditions: Homo sapiens, KYSE-70, serum-free medium containing Glc, BrdU and varied concentrations of inhibitor, read-out: IC^50 on ESCC cell proliferation
Protocol: as §1, §2

ESCC (KYSE70) cells = experiment: WST1 analysis of cisplatin combined with FAK H58 inhibitor, KYSE70; format: cell-based; conditions: KYSE70, 72 hr
Protocol: ESCC (KYSE70) cells were seeded on a 96-well plate at a density of 2000 cells/well in complete medium. The next day, medium was replaced with the serum-reduced medium (5% FBS) containing 0-80 μM of cisplatin and 5 fixed doses of H5 (0 μM, 5 μM, 10 μM, 20 μM, or 40 μM). The cells were kept for 72 hrs. WST1 analysis, a MTT-like assay, was performed to assess proliferation. Log (inhibition) vs. response-variable (four parameters). Prism was utilized to find the best-fit value and to calculate a complete confidence interval. […] ESCC (KYSE70) cells were seeded on a 96-well plate at a density of 2000 cells/well in complete medium. The next day, medium was replaced with the serum-reduced medium (5% FBS) containing 0-80 μM of cisplatin and 5 fixed doses of H5 (0 μM, 5 μM, 10 μM, 20 μM, or 40 μM). The cells were kept for 72 hrs. WST1 analysis, a MTT-like assay, was performed to assess proliferation. Log (inhibition) vs. response-variable (four parameters). Prism was utilized to find the best-fit value and to calculate a complete confidence interval. Synergistic effects of the chemotherapy drug combined with FAK H58 inhibitor. Chemotherapies are commonly used treatments for patients with ESCC. […] Cell proliferation was assessed using WST1, a MTT-like reagent. […]

Chain of FAK-RB1 interaction (Q05397 whole entry): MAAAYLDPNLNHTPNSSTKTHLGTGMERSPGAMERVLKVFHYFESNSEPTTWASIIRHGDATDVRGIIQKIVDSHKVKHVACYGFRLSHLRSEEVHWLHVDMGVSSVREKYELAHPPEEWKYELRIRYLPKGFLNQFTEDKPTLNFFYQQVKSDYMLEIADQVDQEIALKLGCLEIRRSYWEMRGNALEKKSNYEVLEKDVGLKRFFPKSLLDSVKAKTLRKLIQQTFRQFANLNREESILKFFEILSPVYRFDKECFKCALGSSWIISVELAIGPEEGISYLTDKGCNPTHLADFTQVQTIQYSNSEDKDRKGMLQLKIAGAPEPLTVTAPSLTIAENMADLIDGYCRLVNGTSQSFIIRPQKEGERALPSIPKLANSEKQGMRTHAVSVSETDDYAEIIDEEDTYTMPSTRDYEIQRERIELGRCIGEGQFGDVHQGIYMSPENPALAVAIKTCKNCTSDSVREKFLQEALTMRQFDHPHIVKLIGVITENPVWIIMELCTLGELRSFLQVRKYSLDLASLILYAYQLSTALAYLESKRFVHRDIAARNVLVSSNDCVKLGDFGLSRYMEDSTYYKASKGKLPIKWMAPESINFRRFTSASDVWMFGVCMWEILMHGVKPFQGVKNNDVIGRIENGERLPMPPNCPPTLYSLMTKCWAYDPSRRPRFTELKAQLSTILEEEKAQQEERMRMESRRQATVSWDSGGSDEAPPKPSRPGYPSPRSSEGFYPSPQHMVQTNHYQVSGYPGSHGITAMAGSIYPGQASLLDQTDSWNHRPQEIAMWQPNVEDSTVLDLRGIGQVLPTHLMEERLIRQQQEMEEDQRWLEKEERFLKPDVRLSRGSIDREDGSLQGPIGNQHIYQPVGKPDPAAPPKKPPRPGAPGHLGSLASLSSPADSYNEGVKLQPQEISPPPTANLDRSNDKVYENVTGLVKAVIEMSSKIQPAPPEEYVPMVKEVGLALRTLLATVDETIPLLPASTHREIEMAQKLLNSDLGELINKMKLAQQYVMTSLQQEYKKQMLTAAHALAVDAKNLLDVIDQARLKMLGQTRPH
Chain of NME1 (Homo sapiens) (Q05397 whole entry): as above

| Effect on NME1-catalyzed FAK^pHis (pHis-rFAK levels) (NME1 (Homo sapiens)) | Effect on FAK-RB1 interaction (FAK-RB1 interaction) | Compound | IC50 (TE10 cells) | IC50 (KYSE70) | IC50 (TE9) | Effect of combination with cisplatin on proliferation (ESCC (KYSE520) cells; KYSE520, 72 hr) | Effect on Glc-induced FAK^pHis58 (FAK^pHis58) | IC50 (KYSE70 cells) | IC50 (ESCC (KYSE520) cells; KYSE520, 5% FBS, 72 hr, before adding H5, read-out: IC50 of cisplatin) | IC50 (ESCC (KYSE520) cells; KYSE520, 5% FBS, 72 hr, fixed doses of H5 (5-40 μM), read-out: IC50 of cisplatin combined with H5) | IC50 (ESCC (KYSE520) cells; KYSE520, 72 hr, before adding H5A, read-out: IC50 of cisplatin (inhibitory effects)) | IC50 (ESCC (KYSE520) cells; KYSE520, 72 hr, fixed doses of H5A, read-out: IC50 of cisplatin combined with H5A) | IC50 (ESCC (KYSE70) cells; before adding H5A, read-out: IC50 of cisplatin (inhibitory effects)) | IC50 (ESCC (KYSE70) cells; fixed doses of H5A, read-out: IC50 of cisplatin combined with H5A) |
| --- | --- | --- | --- | --- | --- | --- | --- | --- | --- | --- | --- | --- | --- | --- |
| attenuates NME1-catalyzed FAK^pHis | prevents Glc-induced FAK-RB1 interaction | O=c1nc(-c2ccccc2)c(-c2ccccc2)n[nH]1 [H5, 5,6-diphenyl-1,2,4-triazin-3(2H)-one] | 0.088 µM | 5.7 µM | 0.38 µM | enhanced the effects of cisplatin | decreased Glc-induced FAK^pHis58 | 9 µM |  |  |  |  |  |  |
|  |  | N.N.[Cl][Pt][Cl] [cisplatin] |  |  |  |  |  |  | 31 µM | 23 µM | 27 µM | 24 µM | 4 µM | 2 µM |
|  |  | CCOC(=O)CSc1nnc(-c2ccccc2)c(-c2ccccc2)n1 [H5B, ethyl [(5,6-diphenyl-1,2,4-triazin-3-yl)thio]acetate] | 0.065 µM |  |  |  |  |  |  |  |  |  |  |  |
